Values quoted from earlier work as cited in patent US11793953B2, “Inhalers and related methods” (Norton (Waterford) Limited, priority 2017, dated 2023).

For `FCC(F)(F)F` [HFA134a, 1,1,1,2-tetrafluoroethane], the surface tension (as liquid at 25° C.) is given as “about 8 mN/m” and the vapor pressure (at 20° C.) is given as 572 kpa.
